# Where a name gives a salt, the structure may show the parent alone. Read-outs that look alike come from different tables or passages of the source.
# Tests used:
# [1] = test system: DLD-1 BRCA2(−/−) colorectal adenocarcinoma cells; experiment: Cell viability assay (Cell Titer-Glo, 7 days), DLD-1 BRCA2(−/−); format: cell-based; conditions: Homo sapiens, 168 h, DLD-1 BRCA2(−/−) cells
# Description: (§1) In some embodiments, the biological assay measures the effects that compounds of the present disclosure may have on the viability of cells, e.g., the viability of cancer cells. In some embodiments, DLD-1 wild-type and DLD-1 BRCA2(−/−) colorectal adenocarcinoma cells, an isogenic pair of cell lines differing in the presence and absence, respectively, of both BRCA2 alleles, are used to measure the effect of the disclosed compounds on the viability of cancer cells. In some embodiments, the cells are harvested during the logarithmic growth period, counted, and seeded at a specified count in the wells of a 96- or 384-well cell culture plate. In some embodiments, after seeding, the cells are incubated, e.g., at 37° C., 5% CO2 overnight. In some embodiments, the cells are treated with compounds, e.g., with serially diluted test compounds at 8-11 concentrations within a desired concentration range, e.g., from 1 nM-10 μM, for the generation of dose-response curves. In some embodiments, the plate is further incubated, e.g., for another 3-7 days in a humidified incubator at 37° C. and 5% CO2. In some embodiments, cell viability is assessed by luminescence measurement after addition of Cell Titer-Glo reagent (Promega, Madison, Wis.) according to the manufacturer's instructions. In some embodiments, cell viability IC50 values are calculated using XLFit, equation 201: y=A+((B−A)/(1+((x/C)^D))), where A=bottom, B=top, C=IC50, and D=slope. In some embodiments, the effects of the test compounds on the viability of other cell lines such as MDA-MB-436, MDA-MB-231, SUM149PT, HCC1395, and UWB1.289 are determined in an analogous method.
# (§2) Compounds of the present disclosure were tested for their effects on the viability of cancer cells. DLD-1 wild-type and DLD-1 BRCA2(−/−) colorectal adenocarcinoma cells, an isogenic pair of cell lines differing in the presence and absence, respectively, of both BRCA2 alleles, were used. The cells were harvested during the logarithmic growth period, counted, and seeded at 50 cells/well for DLD-1 wild-type and 200 cells/well for DLD-1 BRCA2(−/−) in a 384-well cell culture plate. After seeding, cells were incubated at 37° C., 5% CO2 overnight. Cells were treated with serially diluted test compounds at 10 concentrations (e.g., from 1.5 nM-30 μM) for generation of dose response curves, or at a single concentration. The plate was further incubated for another 7 days in a humidified incubator at 37° C. and 5% CO2. Cell viability was assessed by luminescence measurement after addition of Cell Titer-Glo reagent (Promega, Madison, Wis.) according to the manufacturer's instructions. Cell viability IC50 values were calculated using XLFit, equation 201. y=A+((B−A)/(1+((x/C)^D))), where A=bottom, B=top, C=IC50, and D=slope. IC50 values are shown in Table B and are presented in ranges, in which “+++”<300 nM, 300 nM≤“++”<3000 nM, and “+”≥3000 nM. Values for percent inhibition at 10 μM are also shown in Table B and are presented in ranges, in which “***”≥67%, 33%: “**”≤67%, and “*”<33%. Effects of the test compounds on the viability of other cell lines such as MDA-MB-436, MDA-MB-231, SUM149PT, HCC1395, and UWB1.289 are determined in an analogous method.
# [2] = test system: DLD-1 wild-type colorectal adenocarcinoma cells; experiment: Cell viability assay (Cell Titer-Glo, 7 days), DLD-1 wild-type; format: cell-based; conditions: Homo sapiens, 168 h, DLD-1 wild-type cells, read-out: DLD-1 wild-type % inh at 10 μM
# Description: as §1, §2
# recombinant human PARP2 = recombinant human PARP2 (Homo sapiens, UniProt Q9UGN5); experiment: PARP2 fluorescence polarization binding assay; conditions: read-out: PARP2 % inh at 10 μM
# recombinant human PARP1 = recombinant human PARP1 (Homo sapiens, UniProt P09874); experiment: PARP1 fluorescence polarization binding assay; conditions: GST-tagged PARP1 20 nM, PARP1-FL probe 3 nM
# Protocol: In some embodiments, the biological assay is described in the Examples herein. In some embodiments, the biological assay measures PARP-1 binding by way of fluorescence polarization measurements. In some embodiments, binding of a test compound to recombinant human PARP-1 reduces the amount of binding of a fluorescent probe, and consequently reduces the detected level of fluorescence polarization. In some test compound stock solutions are prepared in a solvent, e.g., DMSO, and are serially diluted into a range of concentrations, e.g., 15 concentrations, 14 concentrations, 13 concentrations, 12 concentrations, 11 concentrations, 10 concentrations, 9 concentrations, 8 concentrations, 7 concentrations, 6 concentrations, or 5 concentrations, by a dilution factor, e.g., a 10-fold dilution factor, a 9-fold dilution factor, an 8-fold dilution factor, a 7-fold dilution factor, a 6-fold dilution factor, a 5-fold dilution factor, a 4-fold dilution factor, a 3-fold dilution factor, or a 2-fold dilution factor. In some embodiments, the serial dilutions, e.g., 100 nL of serial dilution, 90 nL of serial dilution, 80 nL of serial dilution, 70 nL of serial dilution, 60 nL of serial dilution, 50 nL of serial dilution, 30 nL of serial dilution, 20 nL of serial dilution, or 10 nL of serial dilution, are added to a multi-welled plate, e.g., a 1536-well plate, a 384-well plate, or a 96-well plate. In some embodiments, PARP-1, e.g., GST-tagged PARP-1, is diluted in assay buffer, e.g., 50 μL of assay buffer, 40 μL of assay buffer, e.g., 30 μL of assay buffer, 20 μL of assay buffer, 10 μL of assay buffer, or 5 μL of assay buffer, and is added to the plate. In some embodiments, the plate is centrifuged, e.g., at 1000 rpm for 1 min, and incubated, e.g., incubated for 30 minutes at room temperature (RT). In some embodiments, a fluorescent probe, e.g., 10 μL of 6 nM PARP1-FL (TOCRIS, Cat #6461), is diluted in an assay buffer and is added to the plate. In some embodiments, the final concentrations of PARP-1 and fluorescent probe are 20 nM and 3 nM, respectively, in a total volume of 20 μL. In some embodiments, the plate is centrifuged, e.g., at 1000 rpm for 1 minute, and the assay plate is incubated, e.g., for 4 h at RT. In some embodiments, the samples in each well are read using a plate reader, e.g., an Envision instrument using excitation=480 nm, and emission wavelength=FITC FP-P pol 535 nm & FITC FP-S pol 535 nm). In some embodiments, percent inhibition is calculated from mP values using Inhibition (%)=[1−(mPc−mPL)/(mPH−mPL)]×100%, where mPc, mPL, and mPH are the mP values of test compound, Low controls, and High controls, respectively. In some embodiments, binding IC50 values are calculated using XLFit (equation 201: y=A+((B−A)/(1+((x/C)^D))), where A=bottom, B=top, C=IC50, and D=slope) with a floating top and bottom for curves.
# Compounds of the present disclosure were tested in a PARP1 fluorescence polarization binding assay at Pharmaron (Beijing, P.R. China). In this biochemical assay, binding of test compound to recombinant human PARP1 reduces the amount of binding of a fluorescent probe, and consequently reduces the detected level of fluorescence polarization. Test compound stock solutions were prepared in DMSO and then serially diluted into 10 concentrations by 3-fold dilution in a 384-well plate using a TECAN EVO200. Alternatively, a single concentration was prepared. 60 nL of each dilution was transferred to the plate using an Echo550 (Labcyte), and then 10 μL 40 nM GST-tagged PARP1 (BPS Bioscience, Cat #80501), diluted in assay buffer (50 mM Tris pH 8.0, 0.001% Triton X-100, 10 mM MgCl2, 150 mM NaCl), was added to the plate. After a centrifugation at 1000 rpm for 1 min, the assay plate was incubated for 30 min at RT. 10 μL 6 nM PARP1-FL (TOCRIS, Cat #6461), diluted using assay buffer, was then added to the plate. The final concentrations of PARP1 and PARP1-FL were 20 nM and 3 nM, respectively, in a total volume of 20 μL. […]
# [3] = percent inhibition at 10 μM, fluorescence polarization, GST-tagged PARP2 20 nM, PARP1-FL probe 3 nM
# recombinant human PARP2, sequence (Q9UGN5 whole entry): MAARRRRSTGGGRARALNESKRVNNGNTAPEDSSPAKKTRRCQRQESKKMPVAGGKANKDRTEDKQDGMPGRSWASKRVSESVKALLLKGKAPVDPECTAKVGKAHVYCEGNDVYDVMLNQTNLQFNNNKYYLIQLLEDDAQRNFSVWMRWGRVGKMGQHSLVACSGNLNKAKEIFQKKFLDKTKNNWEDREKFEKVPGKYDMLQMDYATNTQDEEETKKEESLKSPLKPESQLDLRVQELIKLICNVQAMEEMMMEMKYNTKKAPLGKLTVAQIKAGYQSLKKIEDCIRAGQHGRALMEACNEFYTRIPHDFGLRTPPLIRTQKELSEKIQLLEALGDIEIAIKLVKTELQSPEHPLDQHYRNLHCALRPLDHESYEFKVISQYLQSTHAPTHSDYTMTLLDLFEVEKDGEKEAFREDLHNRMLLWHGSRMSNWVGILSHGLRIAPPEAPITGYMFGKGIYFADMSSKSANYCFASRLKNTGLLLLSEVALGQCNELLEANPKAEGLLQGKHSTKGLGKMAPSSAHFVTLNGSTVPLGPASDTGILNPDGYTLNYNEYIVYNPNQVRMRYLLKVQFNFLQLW
# recombinant human PARP1, sequence (P09874 whole entry): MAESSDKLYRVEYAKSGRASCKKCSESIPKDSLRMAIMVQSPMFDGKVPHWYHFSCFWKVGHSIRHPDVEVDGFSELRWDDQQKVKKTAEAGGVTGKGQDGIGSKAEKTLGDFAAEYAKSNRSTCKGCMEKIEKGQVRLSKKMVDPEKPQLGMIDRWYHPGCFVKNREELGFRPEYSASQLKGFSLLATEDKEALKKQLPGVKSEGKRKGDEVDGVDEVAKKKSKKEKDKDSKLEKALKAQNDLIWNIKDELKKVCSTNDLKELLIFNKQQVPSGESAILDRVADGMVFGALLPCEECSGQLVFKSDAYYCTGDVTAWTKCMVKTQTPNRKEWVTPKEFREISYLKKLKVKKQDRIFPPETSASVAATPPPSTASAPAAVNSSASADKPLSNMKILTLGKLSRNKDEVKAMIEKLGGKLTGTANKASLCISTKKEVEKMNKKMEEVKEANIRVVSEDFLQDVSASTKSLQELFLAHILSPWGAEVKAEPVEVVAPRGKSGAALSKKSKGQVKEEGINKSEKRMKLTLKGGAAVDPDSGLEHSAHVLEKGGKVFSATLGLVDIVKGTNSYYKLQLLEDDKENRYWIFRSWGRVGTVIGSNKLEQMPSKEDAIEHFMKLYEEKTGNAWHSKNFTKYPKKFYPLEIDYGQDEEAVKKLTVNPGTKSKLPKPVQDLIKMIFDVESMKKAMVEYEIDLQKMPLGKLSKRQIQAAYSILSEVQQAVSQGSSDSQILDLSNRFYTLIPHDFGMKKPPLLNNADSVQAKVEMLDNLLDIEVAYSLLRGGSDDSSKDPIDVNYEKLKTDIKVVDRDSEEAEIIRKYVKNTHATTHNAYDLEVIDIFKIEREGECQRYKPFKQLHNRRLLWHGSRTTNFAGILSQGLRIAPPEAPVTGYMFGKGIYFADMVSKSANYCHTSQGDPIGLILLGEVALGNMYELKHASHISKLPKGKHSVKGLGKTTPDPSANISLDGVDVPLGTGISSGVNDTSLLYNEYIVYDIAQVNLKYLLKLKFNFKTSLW
IC50 [1],inhibition at 10 µM (recombinant human PARP2; [3]),IC50 (recombinant human PARP1),SMILES,inhibition at 10 µM [2],inhibition at 10 µM (recombinant human PARP2)
0.3 to 3 µM,< 33%,< 0.1 µM,"CCNC(=O)Nc1cc(CN2CCN(c3ccc(C(=O)CC)nc3C)CC2)ccn1 [Compound 7, 1-ethyl-3-(4-((4-(2-methyl-6-propionylpyridin-3-yl)piperazin-1-yl)methyl)pyridin-2-yl)urea]",33 to 67%,–
< 0.3 µM,33 to 67%,< 0.1 µM,"CCNC(=O)Nc1cc(CN2CCN3c4ccc(C(=O)NC)nc4OC[C@H]3C2)ccn1 [Compound 264, (R)-3-((2-(3-ethylureido)pyridin-4-yl)methyl)-N-methyl-1,2,3,4,4a,5-hexahydropyrazino[1,2-d]pyrido[2,3-b][1,4]oxazine-8-carboxamide]",< 33%,–
≥ 3 µM,< 33%,< 0.1 µM,"CCNC(=O)Nc1ncc(CN2CCN(c3ccc(C(=O)NC)nc3C)CC2)n1C [Compound 277, 5-(4-((2-(3-ethylureido)-1-methyl-1H-imidazol-5-yl)methyl)piperazin-1-yl)-N,6-dimethylpicolinamide]",< 33%,–
< 0.3 µM,< 33%,< 0.1 µM,"CCNC(=O)Nc1nccc(CN2CCN(c3ccc(C#N)cn3)CC2)c1F [Compound 268, 1-(4-((4-(5-cyanopyridin-2-yl)piperazin-1-yl)methyl)-3-fluoropyridin-2-yl)-3-ethylurea]",< 33%,–
≥ 3 µM,< 33%,0.1 to 3 µM,"CCNC(=O)Nc1cccc(CN2CCN(c3ccc(C(=O)NC)nc3C)CC2)c1 [Compound 202, 5-(4-(3-(3-ethylureido)benzyl)piperazin-1-yl)-N,6-dimethyl picolinamide formate]",< 33%,–
< 0.3 µM,33 to 67%,< 0.1 µM,"CCNC(=O)Nc1cc(CN2CCN(c3ccc(C(=O)NC)nc3C#N)CC2)ccn1 [Compound 22, 6-cyano-5-(4-((2-(3-ethylureido)pyridin-4-yl)methyl)piperazin-1-yl)-N-methylpicolinamide]",< 33%,–
–,–,≥ 3 µM,"CCNC(=O)Nc1cc(CN2CCN(c3ccc(C(=O)NC#N)nc3C)CC2)ccn1 [Compound 3, N-cyano-5-(4-((2-(3-ethylureido)pyridin-4-yl)methyl)piperazin-1-yl)-6-methylpicolinamide dihydrochloride]",–,–
–,< 33%,≥ 3 µM,"CCNS(=O)(=O)Nc1cc(CN2CCN(c3ccc(C(=O)NC)nc3C)CC2)ccn1 [Compound 105, 5-(4-((2-((N-ethylsulfamoyl)amino)pyridin-4-yl)methyl)piperazin-1-yl)-N,6-dimethylpicolinamide]",–,–
–,–,< 0.1 µM,"CCNC(=O)Nc1cc(CN2CCN(c3ccc(C(=O)NC)nc3C)CC2)no1 [Compound 279, 5-(4-((5-(3-ethylureido)isoxazol-3-yl)methyl)piperazin-1-yl)-N,6-dimethylpicolinamide]",–,–
–,–,< 0.1 µM,"CCNC(=O)Nc1cc(CN2CCN(c3ccc(C(=O)NC)nc3C)CC2)n(C)n1 [Compound 281, 5-(4-((3-(3-ethylureido)-1-methyl-1H-pyrazol-5-yl)methyl)piperazin-1-yl)-N,6-dimethylpicolinamide trihydrochloride]",–,–
–,–,≥ 3 µM,"CNC(=O)C(=O)Nc1cc(CN2CCN(c3ccc(C(=O)NC)nc3C)CC2)ns1 [Compound 280, N1-methyl-N2-(3-((4-(2-methyl-6-(methylcarbamoyl)pyridin-3-yl)piperazin-1-yl)methyl)isothiazol-5-yl) oxalamide formate]",–,–

SMILES,IC50 [1],inhibition at 10 µM (recombinant human PARP2; [3]),IC50 (recombinant human PARP1),inhibition at 10 µM [2],inhibition at 10 µM (recombinant human PARP2)
"CCNC(=O)Nc1cc(CN2CCN(c3ccc(C#N)nc3)CC2)ccn1 [Compound 267, 1-(4-((4-(6-cyanopyridin-3-yl)piperazin-1-yl)methyl)pyridin-2-yl)-3-ethylurea formate]",< 0.3 µM,–,< 0.1 µM,< 33%,< 33%
"CCNC(=O)Nc1cc(CN2CCN(c3ccc(C(=O)NC)nc3F)CC2)ncn1 [Compound 229, 5-(4-((6-(3-ethylureido)pyrimidin-4-yl)methyl)piperazin-1-yl)-6-fluoro-N-methylpicolinamide formate]",< 0.3 µM,–,< 0.1 µM,< 33%,< 33%

# Source: patent US20240343710A1, “HETEROCYCLIC COMPOUNDS AND METHODS OF USE THEREOF” (1cBio, Inc., priority 2023, published 2024)
